Measurements as given in the NIST ThermoML archive (doi:10.1021/je800589e).

Test: xn = mol fraction of the nth substance listed
Details: Ring tensiometer

O=C1CCCN1 [2-pyrrolidinone] + O
surface tension liquid-gas [mN/m]
Details	293.15 K	298.15 K	303.15 K	313.15 K	323.15 K
x1 = 0.0002	60.4	58.9	57.3	55.4	53.2
x1 = 0.0006	55.69	54.6	53.93	52.2	51.05
x1 = 0.01	52.9	51.68	50.8	49.8	49.1
x1 = 0.015	52.4	51.19	50.23	49.3	48.7
x1 = 0.05	50.72	49.58	48.68	47.77	46.34
x1 = 0.07	50.26	49.28	48.45	47	45.89
x1 = 0.1	49.96	48.91	48	46.49	45.58
x1 = 0.2	48.91	48.08	47.09	45.89	45.13
x1 = 0.3	47.93	47.17	46.42	45.43	44.6
x1 = 0.4	47.54	46.87	46.19	45.28	44.53
x1 = 0.5	47.17	46.72	46.02	45.21	44.45
x1 = 0.6	47.1	46.64	45.81	44.91	44.15
x1 = 0.7	47.1	46.42	45.66	45	44.23
x1 = 0.8	46.94	46.42	45.66	44.68	43.85
x1 = 0.9	46.64	46.11	45.51	44.53	43.77
x1 = 1	46.31	45.81	45.22	44.12	43.19

O [water] + CN1CCCC1=O
x2 = 0
Details	surface tension liquid-gas [mN/m]
293.15 K	72.65
298.15 K	72.05
303.15 K	71.21
313.15 K	69.52
323.15 K	67.92

O [water] + CCN1CCCC1=O
x2 = 0
Details	surface tension liquid-gas [mN/m]
293.15 K	72.65
298.15 K	72.05
303.15 K	71.21
313.15 K	69.52
323.15 K	67.92

O [water] + O=C1CCCN1
x2 = 0
Details	surface tension liquid-gas [mN/m]
293.15 K	72.65
298.15 K	72.05
303.15 K	71.21
313.15 K	69.52
323.15 K	67.92

CCN1CCCC1=O [1-ethyl-2-pyrrolidinone] + O
surface tension liquid-gas [mN/m]
Details	293.15 K	298.15 K	303.15 K	313.15 K	323.15 K
x1 = 0.0002	65.16	62.84	60.76	58.13	53.44
x1 = 0.0005	59.61	57.85	55.95	53.14	50.14
x1 = 0.001	56.3	54.77	53.23	51	49
x1 = 0.01	48.62	47.51	46.59	45.11	43.84
x1 = 0.02	44.12	43.28	42.53	41.4	40.2
x1 = 0.05	43.48	42.53	41.79	40.32	39.26
x1 = 0.1	42.11	41.22	40.42	39.3	38.32
x1 = 0.2	40.9	40.09	39.35	38.43	37.22
x1 = 0.3	40.28	39.44	38.52	37.59	36.48
x1 = 0.4	39.63	38.73	37.87	36.87	35.72
x1 = 0.5	39.25	38.23	37.31	36.2	35.26
x1 = 0.6	38.6	37.89	36.94	35.83	34.86
x1 = 0.7	38.04	37.01	36.39	35.35	34.72
x1 = 0.8	37.71	36.63	35.9	35.08	34.35
x1 = 0.9	37.09	36.17	35.63	34.72	34
x1 = 1	36.48	35.65	35	34.35	33.61

CN1CCCC1=O [N-methylpyrrolidone] + O
surface tension liquid-gas [mN/m]
Details	293.15 K	298.15 K	303.15 K	313.15 K	323.15 K
x1 = 0.0002	63.96	61.5	59.25	57	55
x1 = 0.0004	58.14	56.58	55.68	53.77	52.41
x1 = 0.0006	55.21	54.22	53.41	52.05	50.87
x1 = 0.001	53.5	52.86	52.23	51.05	50.14
x1 = 0.005	52.4	51.68	50.87	49.69	48.78
x1 = 0.01	51.6	50.78	50	48.87	48.05
x1 = 0.03	50.2	49.41	48.53	47.17	45.56
x1 = 0.1	49	48.29	47.49	46.34	44.6
x1 = 0.2	48.05	47.49	46.61	45.5	43.7
x1 = 0.4	46.05	45.42	44.94	44	42.4
x1 = 0.5	45.26	44.62	44	43.12	41.81
x1 = 0.6	44.46	43.82	43.1	42.3	41.18
x1 = 0.7	43.66	43	42.38	41.5	40.46
x1 = 0.8	42.78	42.14	41.66	40.78	39.74
x1 = 0.9	41.98	41.34	40.94	40.14	39.27
x1 = 1	41.26	40.8	40.38	39.64	38.68
